Data as given in patent publication US8598383B2, “Pharmaceutical composition for treating or preventing degenerative and inflammatory diseases” (Neurotech Pharmaceuticals Co., Ltd., priority 2006, dated 2013).

How the values were obtained:
[1] = test system: collagen-induced arthritis; assay: Collagen-induced arthritis model (arthritic index); assay type: in vivo, mouse; details: 25 mg/kg/day intraperitoneal
Procedure: FIG. 15 is results showing efficacy through arthritis animal model induced by collagen. 25 mg/kg of compound 2, 3 or 18, or methotrexate (control, MTX, 1 mg/kg/week) was intraperitoneally injected after administration of collagen.
FIG. 16 is results showing efficacy of compounds 6 and 11 through arthritis animal model induced by collagen. Collagen was intradermally injected two times with 2 week-interval. One week later, compound 6, compound 11 and methotrexate (control) were intraperitoneally injected. Then, the animals were observed everyday for 2-3 weeks, and results was evaluated by arthritis index.
To evaluate the efficacy of the 2-hydroxybenzoic acid derivative, collagen-induced arthritis model (rheumarthritis animal model) was used. Bovine type II collagen was mixed with complete Freund's adjuvant to make an emulsion, and the emulsion was intradermally injected into the origin site of 8˜10 week-old DBA/1LacJ mouse tail. Intradermal boosting was performed by the same method 2 weeks later. 25 mg/kg/day of compounds 2, 3 and 18, 1 mg/kg/week of methotrexate (comparative example) or 10% vehicle (control) were intraperitoneally injected one week after the second intradermal injection of collagen (FIG. 15). Pictures of foot edema of normal rat (sham), collagen-administered rat (collagen) and compound 18-administered rat (compound 18, 25 mg/kg/day injection) were shown in FIG. 14.
In addition, 50 mg/kg/day of compounds 6 and 11, and 5 mg/kg/2 days of methotrexate (comparative example) were intraperitoneally injected. Phosphate buffered saline was injected as control (FIG. 16). For 2˜3 weeks, the degree of arthritis was observed everyday, and the result was evaluated according to the below arthritic index using edema.
4 paws were evaluated as from 0 to 4 point, Total points: 16

TNF-α mRNA in AGS cell = assay: Expression of TNF-α mRNA in ethanol-treated AGS cells (RT-PCR); assay type: cell-based, human; details: 1-100 uM, ethanol 24 hours
Procedure: FIG. 7 is a picture showing the expression degree of TNF-α mRNA. Cultured AGS cell was treated with 25 mM of alcohol for 24 hours, alone or with compound 2 having indicated concentration. Then, mRNA was extracted and evaluated by RT-PCR method.
As one marker of inflammation, the expression level of TNF-α mRNA was evaluated by RT-PCR method. Samples treated with ethanol for 24 hours were used.

With `O=C(O)c1cc(NCCc2ccc(C(F)(F)F)cc2)ccc1O` [compound 2, 2-hydroxy-5-[2-(4-trifluoromethyl-phenyl)-ethylamino]-benzoic acid] the arthritic index [1] was “apparent reducing effect” and the “expression of TNF-α mRNA” value (TNF-α mRNA in AGS cell) was “completely suppressed”.
